Source: patent US6682763B2, “Skin-beautifying agent, anti-aging agent for the skin, whitening agent and external agent for the skin” (The Nisshin Oil Mills, Ltd., priority 1999, dated 2004)

Tested on: B-16 melanoma cells
Conditions: mouse, 5 days
Protocol: If the culture system includes a substance capable of inhibiting the melanin-production during the proliferation, the darkening of the cells is suppressed, while the whitening thereof is promoted. Thus, the melanin-production-inhibitory function can be evaluated by comparing the degree of darkening of cells observed when any sample is not added with the degree of whitening of cells observed when the sample is added. In this connection, some of substances may be toxic to the B-16 melanoma cells. To evaluate this cytotoxicity, the cell-survival rate observed when a sample is not added is compared with that observed for the system free of any sample. The melanin-production-inhibitory function is evaluated using the cell-whitening degree and the cell-survival rate in combination.
Cytotoxicity Index=C/D <Formula 4>
In this respect, the term “cell-survival rate” herein used is defined by the following <Formula 5>:
Cell-Survival Rate(%)=(E/F)×100 <Formula 5>
E: Viable cell count observed for the system to which a sample is added.
F: Number of cells observed for the system free of any added test sample. […]
The rate of cell-survival can be calculated according to the aforementioned relation: <Formula 5>.

OC[C@H]1O[C@@H](Oc2ccc(O)cc2)[C@H](O)[C@@H](O)[C@@H]1O [arbutin]
concentration at N.D. (rate of cell survival not more than 10%): 500 ppm
